Results from US20260327214A1, “1,3,4-OXADIAZOLE DERIVATIVE COMPOUNDS AS HISTONE DEACETYLASE 6 INHIBITOR, AND USES THEREOF” (CHONG KUN DANG PHARMACEUTICAL CORP., priority 2022, published 2026).

Columns and labels:
human recombinant HDAC6 = target: T1, human recombinant HDAC6 (Homo sapiens, UniProt Q9UBN7); test: HDAC6 enzyme activity inhibition test (HDAC Fluorometric Drug Discovery Kit); format: biochemical; conditions: for HDAC6 selectivity (fold): HDAC6 over HDAC1; for IC50: human recombinant HDAC6, same protocol as HDAC1
T1 construct: purchased Calbiochem 382180
T1 sequence (Q9UBN7 1-1215): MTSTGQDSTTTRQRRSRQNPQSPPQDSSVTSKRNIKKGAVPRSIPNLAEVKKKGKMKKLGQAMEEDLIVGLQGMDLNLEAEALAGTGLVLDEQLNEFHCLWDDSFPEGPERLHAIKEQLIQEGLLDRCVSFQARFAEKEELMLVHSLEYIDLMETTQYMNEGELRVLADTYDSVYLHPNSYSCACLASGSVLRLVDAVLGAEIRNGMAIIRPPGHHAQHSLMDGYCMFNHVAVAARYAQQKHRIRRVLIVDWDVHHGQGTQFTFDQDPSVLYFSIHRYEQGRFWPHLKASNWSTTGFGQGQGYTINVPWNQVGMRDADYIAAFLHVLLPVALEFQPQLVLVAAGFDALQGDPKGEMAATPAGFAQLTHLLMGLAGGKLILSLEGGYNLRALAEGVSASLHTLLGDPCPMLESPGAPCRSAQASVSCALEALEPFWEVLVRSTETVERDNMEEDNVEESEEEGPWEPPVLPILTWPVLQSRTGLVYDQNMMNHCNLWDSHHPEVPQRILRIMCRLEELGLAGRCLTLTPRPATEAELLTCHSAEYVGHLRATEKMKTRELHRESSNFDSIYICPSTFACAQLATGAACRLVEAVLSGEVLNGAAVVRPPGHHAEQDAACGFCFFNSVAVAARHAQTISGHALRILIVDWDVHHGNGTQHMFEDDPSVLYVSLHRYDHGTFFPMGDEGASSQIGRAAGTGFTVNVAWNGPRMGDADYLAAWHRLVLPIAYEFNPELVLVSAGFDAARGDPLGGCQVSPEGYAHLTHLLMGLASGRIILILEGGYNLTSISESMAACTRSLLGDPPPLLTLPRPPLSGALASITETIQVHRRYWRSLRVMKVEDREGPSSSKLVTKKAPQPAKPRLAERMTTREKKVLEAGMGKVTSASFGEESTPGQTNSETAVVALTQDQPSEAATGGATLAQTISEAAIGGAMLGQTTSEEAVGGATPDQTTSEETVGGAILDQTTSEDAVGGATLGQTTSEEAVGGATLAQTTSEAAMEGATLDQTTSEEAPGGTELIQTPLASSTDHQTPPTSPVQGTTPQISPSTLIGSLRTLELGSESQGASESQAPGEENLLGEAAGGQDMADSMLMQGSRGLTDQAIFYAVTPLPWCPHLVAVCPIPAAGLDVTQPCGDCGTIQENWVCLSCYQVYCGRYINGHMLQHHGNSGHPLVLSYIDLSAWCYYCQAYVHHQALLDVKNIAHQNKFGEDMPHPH
Experimental: (§1) The following experiment was conducted to confirm the HDAC6 selectivity of the compound represented by Chemical Formula I of the present invention through the HDAC1 and HDAC6 enzyme activity inhibition test.
(§2) HDAC enzyme activity was measured using HDAC Fluorometric Drug Discovery Kit (BML-AK511, 516) manufactured by Enzo Life Science. For the HDAC1 enzyme activity test, human recombinant HDAC1 (BML-SE456) was used as an enzyme source and Fluor de Lys-®-″SIRT1 (BNL-KI177) was used as a substrate. The 5-fold diluted compound was dispensed in a 96-well plate, 0.3 μg of enzyme and 10 μM substrate were added to each well and reacted at 30° C. for 60 minutes, and Fluor de Lys® Developer II(BML-KI176) was added and reacted for 30 minutes to complete the reaction. Then, the fluorescence value (Ex 360, Em 460) was measured using a multiplate reader (Flexstation 3, Molecular Device). The HDAC6 enzyme was tested using the same protocol as the HDAC1 enzyme activity test method employing human recombinant HDAC6 (382180) from Calbiochem. For the final result, each […] value was calculated using the GraphPad Prism 4.0 program.

human recombinant HDAC1 = target: T2, human recombinant HDAC1 (Homo sapiens, UniProt Q13547); test: HDAC1 enzyme activity inhibition test (HDAC Fluorometric Drug Discovery Kit); format: biochemical; conditions: 30° C., 60 minutes, 10 μM substrate
T2 construct: purchased Enzo Life Science BML-SE456
T2 sequence (Q13547 whole entry): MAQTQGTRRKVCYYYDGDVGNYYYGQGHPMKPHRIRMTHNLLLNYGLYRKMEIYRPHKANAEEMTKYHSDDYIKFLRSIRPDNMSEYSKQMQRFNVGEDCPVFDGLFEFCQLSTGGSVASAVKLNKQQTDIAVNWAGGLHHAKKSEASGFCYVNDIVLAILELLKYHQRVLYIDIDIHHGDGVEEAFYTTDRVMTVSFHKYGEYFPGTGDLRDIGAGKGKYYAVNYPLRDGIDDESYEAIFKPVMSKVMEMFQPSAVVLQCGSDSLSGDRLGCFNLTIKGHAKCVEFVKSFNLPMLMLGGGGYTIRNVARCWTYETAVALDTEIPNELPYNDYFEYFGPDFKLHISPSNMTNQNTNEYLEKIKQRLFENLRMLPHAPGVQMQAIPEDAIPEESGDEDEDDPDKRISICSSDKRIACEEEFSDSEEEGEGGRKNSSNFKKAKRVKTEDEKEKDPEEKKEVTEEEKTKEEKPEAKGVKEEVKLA
Experimental: as §1, §2

HDAC6 selectivity (fold) (human recombinant HDAC6)	IC50 (human recombinant HDAC6) [nM]	IC50 (human recombinant HDAC1) [nM]	Compound
652	76.7	> 50000	O=c1oc(-c2cccc(N3CCN(C4COC4)CC3)c2)nn1Cc1ccc(-c2nnc(C(F)F)o2)cn1 [Compound 40, 3-[[5-[5-(difluoromethyl)-1,3,4-oxadiazol-2-yl]-2-pyridyl]methyl]-5-[3-[4-(oxetane-3-yl)piperazin-1-yl]phenyl]-1,3,4-oxadiazol-2-one]
909	55	> 50000	CN1CCC(c2cccc(-c3nn(Cc4ccc(-c5nnc(C(F)F)o5)cn4)c(=O)s3)c2F)CC1 [Compound 41, 3-[[5-[5-(difluoromethyl)-1,3,4-oxadiazol-2-yl]-2-pyridyl]methyl]-5-[2-fluoro-3-(1-methyl-4-piperidyl)phenyl]-1,3,4-thiadiazol-2-one]
975	51.3	> 50000	O=c1oc(-c2ccc3ccccc3n2)nn1Cc1ccc(-c2nnc(C(F)F)o2)cn1 [Compound 42, 3-[[5-[5-(difluoromethyl)-1,3,4-oxadiazol-2-yl]-2-pyridyl]methyl]-5-(2-quinolyl)-1,3,4-oxadiazol-2-one]
359	139	> 50000	O=c1sc(-c2ccccc2)nn1Cc1ccc(-c2nnc(C(F)F)o2)cn1 [Compound 43, 3-[[5-[5-(difluoromethyl)-1,3,4-oxadiazol-2-yl]-2-pyridyl]methyl]-5-phenyl-1,3,4-thiadiazol-2-one]
704	71	> 50000	O=c1sc(-c2cccs2)nn1Cc1ccc(-c2nnc(C(F)F)o2)cn1 [Compound 44, 3-[[5-[5-(difluoromethyl)-1,3,4-oxadiazol-2-yl]2-pyridyl]methyl]-5-(2-thienyl)-1,3,4-thiadiazol-2-one]
543	92	> 50000	FC(F)c1nnc(-c2ccc(Cn3nc(-c4ccccc4)oc3=S)nc2)o1 [Compound 45, 3-((5-(5-(difluoromethyl)-1,3,4-oxadiazol-2-yl)pyridin-2-yl)methyl)-5-phenyl-1,3,4-oxadiazol-2(3H)-thione]
1171	42.7	> 50000	FC(F)c1nnc(-c2ccc(Cn3nc(-c4ccccn4)oc3=S)nc2)o1 [Compound 46, 3-[[5-[5-(difluoromethyl)-1,3,4-oxadiazol-2-yl]-2-pyridyl]methyl]-5-(2-pyridyl)-1,3,4-oxadiazol-2-thione]
1548	32.3	> 50000	Fc1cc(-c2nnc(C(F)F)o2)cnc1Cn1nc(-c2ccccn2)oc1=S [Compound 47, 3-[[5-[5-(difluoromethyl)-1,3,4-oxadiazol-2-yl]-3-fluoro-2-pyridyl]methyl]-5-(2-pyridyl)-1,3,4-oxadiazol-2-thione]
437	114	> 50000	Fc1cccc(-c2nn(Cc3ncc(-c4nnc(C(F)F)o4)cc3F)c(=S)o2)c1 [Compound 48, 3-[[5-[5-(difluoromethyl)-1,3,4-oxadiazol-2-yl]-3-fluoro-2-pyridyl]methyl]-5-(3-fluorophenyl)-1,3,4-oxadiazol-2-thione]
656	76.2	> 50000	O=c1sc(-c2ccccn2)nn1Cc1ccc(-c2nnc(C(F)F)o2)cn1 [Compound 49, 3-[[5-[5-(difluoromethyl)-1,3,4-oxadiazol-2-yl]-2-pyridyl]methyl]-5-(2-pyridyl)-1,3,4-thiadiazol-2-one]
588	85.1	> 50000	FC(F)c1nnc(-c2ccc(Cn3nc(-c4cccs4)oc3=S)nc2)o1 [Compound 50, 3-[ [5-[5-(difluoromethyl) -1,3,4-oxadiazol-2-yl] -2-pyridyl]methyl] -5-(2-thienyl)-1,3,4-oxadiazol-2-thione]
